System in the first experiment: not listed separately
Briefly: Inhibition of recombinant human full length PKA using kemptide substrate after 80 mins by luminescence mode.
Sequence of Rho-associated protein kinase 2 (O75116 whole entry): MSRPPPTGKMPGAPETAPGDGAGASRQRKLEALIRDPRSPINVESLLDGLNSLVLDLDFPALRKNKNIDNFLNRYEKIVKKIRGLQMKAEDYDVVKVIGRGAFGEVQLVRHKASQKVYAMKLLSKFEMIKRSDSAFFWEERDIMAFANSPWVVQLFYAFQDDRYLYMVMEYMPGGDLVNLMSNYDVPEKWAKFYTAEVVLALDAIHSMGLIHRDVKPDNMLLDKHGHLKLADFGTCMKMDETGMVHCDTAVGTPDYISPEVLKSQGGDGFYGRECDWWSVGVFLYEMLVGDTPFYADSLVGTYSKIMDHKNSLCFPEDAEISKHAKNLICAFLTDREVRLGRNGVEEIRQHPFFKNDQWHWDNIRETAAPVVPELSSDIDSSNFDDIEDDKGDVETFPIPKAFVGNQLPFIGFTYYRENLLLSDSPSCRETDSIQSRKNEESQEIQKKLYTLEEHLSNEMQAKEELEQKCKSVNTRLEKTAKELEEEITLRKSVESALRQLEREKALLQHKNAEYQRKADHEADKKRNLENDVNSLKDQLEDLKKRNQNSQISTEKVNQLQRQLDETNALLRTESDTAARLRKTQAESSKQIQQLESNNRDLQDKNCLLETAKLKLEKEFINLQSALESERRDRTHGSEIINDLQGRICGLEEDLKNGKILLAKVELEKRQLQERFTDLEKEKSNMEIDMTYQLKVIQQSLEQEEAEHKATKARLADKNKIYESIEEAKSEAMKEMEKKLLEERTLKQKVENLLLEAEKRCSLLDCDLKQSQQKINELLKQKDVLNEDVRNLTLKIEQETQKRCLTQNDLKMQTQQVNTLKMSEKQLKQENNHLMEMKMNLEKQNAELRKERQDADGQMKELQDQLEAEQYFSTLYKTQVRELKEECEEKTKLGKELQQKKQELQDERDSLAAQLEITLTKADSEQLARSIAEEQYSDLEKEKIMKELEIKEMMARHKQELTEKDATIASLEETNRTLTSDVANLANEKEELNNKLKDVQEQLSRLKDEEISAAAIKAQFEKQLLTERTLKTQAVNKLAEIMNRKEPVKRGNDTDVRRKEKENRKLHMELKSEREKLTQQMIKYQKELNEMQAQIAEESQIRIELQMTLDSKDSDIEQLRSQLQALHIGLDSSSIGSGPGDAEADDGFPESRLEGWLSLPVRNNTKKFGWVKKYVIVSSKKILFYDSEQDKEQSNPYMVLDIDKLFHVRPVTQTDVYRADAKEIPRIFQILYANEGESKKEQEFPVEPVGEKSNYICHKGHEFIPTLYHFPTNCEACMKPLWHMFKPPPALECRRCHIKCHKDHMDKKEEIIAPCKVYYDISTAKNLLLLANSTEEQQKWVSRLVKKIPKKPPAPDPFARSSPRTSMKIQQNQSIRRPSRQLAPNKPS
As for `COc1cccc(CN(C)C(=O)Nc2ccc(-c3cn[nH]c3)cc2OCCN(C)C)c1`, the IC50 (commonly the concentration that gives 50% inhibition) stood at 5220 nM.
For the compound `O=C(Nc1ccc(-c2cn[nH]c2)cc1)NC(CCO)c1ccccc1` (stereo unspecified), the IC50 was 438 nM.
Still for that read-out and setting: to `COc1cccc(CNC(=O)Nc2ccc(-c3ccncc3)cc2)c1` belongs 2300 nM; to `COc1cccc(CNC(=O)Nc2ccc(-c3cn[nH]c3)cc2N(C)C)c1`, 38 nM.
Still for that read-out and setting: to `O=C(NCCc1ccccc1)Nc1ccc(-c2cn[nH]c2)cc1` belongs 3100 nM; to `CNC(=O)N(CCN(C)C)c1ccc(-c2cn[nH]c2)cc1`, 4200 nM; to `COc1cccc(CNC(=O)Nc2ccc(-c3cn[nH]c3)cc2OCCN(C)C)c1`, 3900 nM.
Same read-out and setting: the same measure for `O=C(NCc1ccccc1)Nc1ccc(-c2cn[nH]c2)cc1`: 590 nM; for `O=C(NCC1CCCCC1)Nc1ccc(-c2cn[nH]c2)cc1`: over 20000 nM; for `COc1ccc(CNC(=O)Nc2ccc(-c3cn[nH]c3)cc2)c(OC)c1`: 11200 nM.
In the case of `COc1cccc(CN(C)C(=O)Nc2ccc(-c3cn[nH]c3)cc2OCCN2CCCC2)c1`, the IC50 was over 20000 nM.
Regarding `O=C(Nc1ccc(-c2cn[nH]c2)cc1F)N(CCO)Cc1ccccc1`, the IC50 was 1020 nM.
Still for that read-out and setting: the same measure for `O=C(Nc1ccc(-c2cn[nH]c2)cc1)NC(CO)c1ccccc1` (stereo unspecified): 389 nM; for `COc1cccc(CNC(=O)Nc2ccc(-c3c[nH]nc3C)cc2)c1`: 816 nM; for `COc1cccc(CN(CCO)C(=O)Nc2ccc(-c3cn[nH]c3)cc2)c1`: 2990 nM.
Still for that read-out and setting: the same measure for `CNC(=O)N(CCCN(C)C)c1ccc(-c2cn[nH]c2)cc1`: 12000 nM; for `COc1cccc(CN(CCN)C(=O)Nc2ccc(-c3cn[nH]c3)cc2)c1`: 72 nM.
Still for that read-out and setting: to `COc1cccc(CN(CCCN2CCOCC2)C(=O)Nc2ccc(-c3cn[nH]c3)cc2)c1` belongs 724 nM; to `CCN(Cc1cccc(OC)c1)C(=O)Nc1ccc(-c2cn[nH]c2)cc1N(C)CCN(C)C`, 5000 nM; to `COc1ccc(CNC(=O)Nc2ccc(-c3cn[nH]c3)cc2)cc1F`, 518 nM.
Regarding `COCCN(Cc1cccc(OC)c1)C(=O)Nc1ccc(-c2cn[nH]c2)cc1`, the IC50 came out at 10500 nM.
The same measure, in the same setting: the same measure for `CCN(Cc1cccc(OC)c1)C(=O)Nc1ccc(-c2cn[nH]c2)cc1OCCN(C)C`: over 20000 nM; for `O=C(NCc1cccc(Cl)c1)Nc1ccc(-c2cn[nH]c2)cc1`: 454 nM; for `O=C(NCc1cccc(F)c1)Nc1ccc(-c2cn[nH]c2)cc1`: 322 nM.
Take `COc1cccc(CN(CCN2CCCC2)C(=O)Nc2ccc(-c3cn[nH]c3)cc2)c1`: the IC50 came to 541 nM.
Same read-out and setting: the same measure for `COc1ccccc1CNC(=O)Nc1ccc(-c2cn[nH]c2)cc1`: 654 nM.
As to `O=C(Nc1ccc(-c2cn[nH]c2)cc1)N(CCO)Cc1ccccc1`, the IC50 amounted to 610 nM.
The same measure, in the same setting: the same measure for `O=C(Nc1ccc(-c2cn[nH]c2)cc1OCCO)N(CCO)Cc1ccccc1`: 615 nM.
The same measure, in the same setting: to `COc1cccc(CN(C)C(=O)Nc2ccc(-c3cn[nH]c3)cc2N(C)CCN(C)C)c1` belongs 4620 nM.
Still for that read-out and setting: the same measure for `CCN(Cc1cccc(OC)c1)C(=O)Nc1ccc(-c2cn[nH]c2)cc1O[C@H]1CCN(C)C1`: 6700 nM.
Regarding `COc1cccc(CNC(=O)Nc2ccc(-c3cn[nH]c3)cc2N(C)CCN(C)C)c1`, the IC50 is 3570 nM.
On the same count and under the same terms, to `CC(C)N(Cc1ccccc1)C(=O)Nc1ccc(-c2cn[nH]c2)cc1` belongs 3380 nM; to `COc1cc(CNC(=O)Nc2ccc(-c3cn[nH]c3)cc2)cc(OC)c1`, over 20000 nM.
`COc1cccc(CNC(=O)Nc2ccc(-c3ccnc(N)n3)cc2)c1`: the IC50 came to 1030 nM.
Still for that read-out and setting: to `COc1cccc(CNC(=O)Nc2ccc(-c3ccnc(N)c3)cc2)c1` belongs 5140 nM; to `Nc1cccc(CNC(=O)Nc2ccc(-c3cn[nH]c3)cc2)c1`, 405 nM; to `COc1ccc(OC)c(CNC(=O)Nc2ccc(-c3cn[nH]c3)cc2)c1`, over 20000 nM.
On the same count and under the same terms, to `COc1cccc(CNC(=O)Nc2ccc(-c3cn[nH]c3)cc2F)c1` belongs 1820 nM.
Turning to `COc1cccc(CN(CCN(C)C)C(=O)Nc2ccc(-c3cn[nH]c3)cc2)c1`, the IC50 turned out to be 456 nM.
Still for that read-out and setting: the same measure for `COc1cccc(CN(CCN2CCCCC2)C(=O)Nc2ccc(-c3cn[nH]c3)cc2)c1`: 338 nM; for `Cc1cccc(CNC(=O)Nc2ccc(-c3cn[nH]c3)cc2)c1`: 2630 nM; for `COc1cccc(CNC(=O)Nc2ccc(-c3cn[nH]c3)cc2OC)c1`: 163 nM.
Same read-out and setting: the same measure for `CN(C)CCC(NC(=O)Nc1ccc(-c2cn[nH]c2)cc1)c1ccccc1` (stereo unspecified): 238 nM; for `CCN(Cc1cccc(OC)c1)C(=O)Nc1ccc(-c2cn[nH]c2)cc1OCCN1CCCC1`: 18100 nM.
The same measure, in the same setting: to `O=C(Nc1ccc(-c2cn[nH]c2)cc1)N1CCc2ccccc2C1` belongs 8000 nM; to `CNC(=O)N(CCO)c1ccc(-c2cn[nH]c2)cc1`, over 20000 nM; to `CN(C)CCN(C)c1cc(-c2cn[nH]c2)ccc1NC(=O)NCc1ccccc1`, 894 nM.
`COc1cccc(CNC(=O)Nc2ccc(-c3cn[nH]c3)cc2Cl)c1`: the IC50 was 313 nM.
For `COc1cccc(CNC(=O)Nc2ccc(-c3cn[nH]c3)cc2)c1OC`, the IC50 was over 20000 nM.
The same measure, in the same setting: the same measure for `CNC(=O)N(C)c1ccc(-c2cn[nH]c2)cc1`: over 20000 nM; for `O=C(NCCCc1ccccc1)Nc1ccc(-c2cn[nH]c2)cc1`: over 20000 nM; for `COc1cccc(CN(C(=O)Nc2ccc(-c3cn[nH]c3)cc2)C2CC2)c1`: 1700 nM.
The same measure, in the same setting: to `CCN(Cc1cccc(OC)c1)C(=O)Nc1ccc(-c2cn[nH]c2)cc1` belongs 4670 nM.
Still for that read-out and setting: to `COc1ccc(CNC(=O)Nc2ccc(-c3cn[nH]c3)cc2)cc1OC` belongs over 20000 nM; to `O=C(Nc1ccc(-c2cn[nH]c2)cc1)NC(CCO)c1cccc(F)c1` (stereo unspecified), 580 nM; to `COc1cccc(CNC(=O)Nc2ccc(-c3ncnc4[nH]ccc34)cc2)c1`, 744 nM.
Regarding `COc1cccc(CN(CCCN2CCCCC2)C(=O)Nc2ccc(-c3cn[nH]c3)cc2)c1`, the IC50 amounted to 822 nM.
As to `COc1cccc(CN(C(=O)Nc2ccc(-c3cn[nH]c3)cc2)C(C)C)c1`, the IC50 worked out at 18400 nM.
Same read-out and setting: to `COc1cccc(CN(CCN2CCOCC2)C(=O)Nc2ccc(-c3cn[nH]c3)cc2)c1` belongs 3820 nM; to `COc1cccc(C(CCO)NC(=O)Nc2ccc(-c3cn[nH]c3)cc2)c1` (stereo unspecified), 4870 nM; to `COc1cccc(OC)c1CNC(=O)Nc1ccc(-c2cn[nH]c2)cc1`, 13500 nM.
Still for that read-out and setting: to `COc1cccc(CNC(=O)Nc2ccc(-c3cn[nH]c3)cc2)c1` belongs 882 nM.
On the same count and under the same terms, the same measure for `COc1cccc(CNC(=O)Nc2ccc(-c3cn[nH]c3)cc2OCCN2CCCC2)c1`: 2730 nM.
For `COc1cccc(CN(C)C(=O)Nc2ccc(-c3cn[nH]c3)cc2)c1`, the IC50 turned out to be 1810 nM.
Same read-out and setting: to `CN(C)CCSc1cc(-c2cn[nH]c2)ccc1NC(=O)NCc1ccccc1` belongs 468 nM; to `COc1cccc(CN(CCCN2CCCC2)C(=O)Nc2ccc(-c3cn[nH]c3)cc2)c1`, 228 nM.

Another experiment concerns the target Rho-associated protein kinase 2 (Homo sapiens, UniProt O75116). In words: Inhibition of ROCK2 (unknown origin) using STK2 substrate after 4 hrs by HTRF mode. For orientation: TR-FRET usually uses a lanthanide donor and a delayed reading to cut background.
In the case of `CN(C)CCOc1cc(-c2cn[nH]c2)ccc1NC(=O)N(CCN(C)C)Cc1ccccc1`, half-maximal inhibition (IC50) required 170 nM.
The same measure, in the same setting: to `CNC(=O)N(CCN(C)C)c1ccc(-c2cn[nH]c2)cc1` belongs 2980 nM; to `CNC(=O)N(CCCN(C)C)c1ccc(-c2cn[nH]c2)cc1`, 3320 nM; to `O=C(Nc1ccc(-c2cn[nH]c2)cc1OCCO)N(CCO)Cc1ccccc1`, under 1 nM.
`CC(C)N(Cc1ccccc1)C(=O)Nc1ccc(-c2cn[nH]c2)cc1`: the midpoint of inhibition, the IC50, lay at 8 nM.
Compound `CNC(=O)N(CCO)c1ccc(-c2cn[nH]c2)cc1` returned an IC50 of 611 nM.
Same read-out and setting: the same measure for `CN(C)CCN(C)c1cc(-c2cn[nH]c2)ccc1NC(=O)NCc1ccccc1`: 8.5 nM; for `CNC(=O)N(C)c1ccc(-c2cn[nH]c2)cc1`: 87 nM.
The same measure, in the same setting: the same measure for `COc1cccc(CNC(=O)Nc2ccc(-c3ncnc4[nH]ccc34)cc2)c1`: 188 nM.
`CN(C)CCSc1cc(-c2cn[nH]c2)ccc1NC(=O)NCc1ccccc1` had an IC50 of 5.6 nM.

The values above are taken from ChEMBL document CHEMBL3400131, “Discovery of potent and selective urea-based ROCK inhibitors: Exploring the inhibitor's potency and ROCK2/PKA selectivity by 3D-QSAR, molecular docking and molecular dynamics simulations” (Bioorg Med Chem, 2015).
